Key:
[1] = system: Aspergillus niger β-mannanase; assay: Enzyme degradation assay of guar solutions (viscosity reduction, steady shear rheology); format: biochemical; settings: for inhibition of β-mannanase by TRIS variants (zero shear viscosity): 25 mM
Method: Enzyme Degradation Assay: Enzyme degradation was conducted with 7 mg/ml purified guar solutions containing 0.2 mg/ml sodium azide and 20 mM of the appropriate buffer. Guar solutions (19 ml) and enzyme stock solution were separately pre-incubated at 25° C. for 15 minutes, followed by the addition of 78.9 μl of enzyme stock solution to 19 ml of guar solution. The final enzyme concentration was 8.3×10^−4 U/ml. The mixture was shaken at an agitation speed of 2 at 25° C. for 1 hour in a New Brunswick gyrotory water bath shaker (Model G76). The enzyme was denatured after 1 hour by placing the enzyme/guar solution in a 90° C. water bath for 10 minutes. Enzyme hydrolysis was conducted at different pH's using various buffers: sodium acetate was used for pH 4 and 5, MES was used for pH 6, sodium phosphate was used for pH 7 and pH 8 and glycine was used for pH 9. If inhibitor, inhibitor variant or NaCl was used, the appropriate amount was added to the guar solution and the pH was readjusted to the appropriate value. […] After incubating each of these solutions at 25° C. for 30 minutes, 78.9 μl of this solution was added to 19 ml of guar solution and the enzymatic degradation of guar was analyzed following known techniques.
Rheology: Steady shear experiments were conducted using a Rheometrics Dynamic Stress Rheometer (DSR II) and a couette fixture with a cup diameter of 31.9 mm, a bob diameter of 29.5 mm and a bob length of 44.25 mm. All experiments were performed at 25° C. and all reported data were reproducible within 10%. Steady shear experiments were performed to determine viscosity, η, as a function of shear rate. […] To analyze a portion of the data, a normalized relative activity was defined using the viscosity data. At a particular pH, the viscosity difference (Δη) between the initial zero shear viscosity and the zero shear viscosity after 1 hour of degradation was used as the reference Δη. […] In summary, [formula]

[2] = from 25 degrees C. to 60 degrees C.
Description: The relative amounts of the two forms are dependent on the pH of the solution and can be predicted by the Henderson-Hasselbach equation.

Q: For O=C(O)CNC(CO)(CO)CO [N-tris (hydroxymethyl) methylglycine, reference compound], which “inhibition of β-mannanase by TRIS variants (zero shear viscosity)” value ([1]; pH 9, 1 hour) is on record?
A: Its value is “no inhibition”.

Q: For [Cl-].[Na+] [NaCl], which “effect of added salt on viscosity reduction by the enzyme” value ([1]; pH 4 and pH 9, same quantities as with TRIS hydrochloride) is on record?
A: Its value is “did not alter the viscosity reduction”.

Q: What does the source list for NC(CO)(CO)CO [TRIS, 2-amino-2-hydroxymethyl-1,3-propanediol]?
A: inhibition of β-mannanase degradation of guar ([1]; 1 mM TRIS, pH 9, 1 hour): only minimal inhibition; viscosity reduction of guar by β-mannanase ([1]; 1 mM TRIS, pH 9, 5 hours): impeded viscosity reduction considerably; inhibition of β-mannanase degradation of guar ([1]; 5 mM TRIS, pH 9, 1 hour): inhibited the degradation considerably; viscosity reduction of guar by β-mannanase ([1]; 10 mM TRIS, pH 9, 5 hours): minimal viscosity reduction; viscosity reduction of guar by β-mannanase ([1]; 10 mM and higher TRIS, pH 9, 1 hour): no viscosity reduction; inhibition of enzyme degradation ([1]; 25mM TRIS, pH 9, enzyme 8.3×10^−4 U/ml): inhibits enzyme degradation for an extended period of time; viscosity reduction of guar by β-mannanase ([1]; 25 mM and higher TRIS, pH 9, 5 hours): no viscosity reduction; inhibition after mixing TRIS with the enzyme solution before addition to guar ([1]; TRIS to enzyme molar ratio 1:1 and 5:1, 30 minutes pre-incubation): neither of these solutions showed any inhibition; type of inhibition ([1]; degradation triggered after 5 hours by pH shift): reversible inhibitor; effect on enzymatic hydrolysis by β-mannanase ([1]; pH 4, 1 hour, 0-25 mM TRIS): did not impede enzymatic hydrolysis; inhibition of β-mannanase at pH 7 compared with pH 9 ([1]; pH 7, low concentrations of TRIS, 1 hour): better inhibitor of the enzyme than at pH 9; viscosity reduction of guar by β-mannanase with TRIS as buffer ([1]; pH 8, 1 hour, 7 mg/ml guar, 8.3×10^−4 U/ml enzyme): negligible reduction in viscosity; pH drop on temperature increase [2]: 0.98

Q: For O=[N+]([O-])C(CO)(CO)CO [Tris (hydroxymethyl) nitromethane, reference compound], which “inhibition of β-mannanase by TRIS variants (zero shear viscosity)” value ([1]; pH 9, 1 hour) is on record?
A: The value was “no inhibition”.

Q: Which “inhibition of β-mannanase, base form compared with hydrochloride form” value ([1]; base form of TRIS (without any salts)) does the source give for “Tris(hydroxymethyl)aminomethane [base form of TRIS]” here?
A: The value was “exactly the same as that of TRIS in its hydrochloride form”.

Source: patent publication US20020193343A1, “Controlled enzymatic degradation of guar galactomannan solutions using enzymatic inhibition” (priority 2000, published 2002)
